Data reported in paper PMC6272399, “Anti-Proliferative Effect and Induction of Apoptosis in Androgen-Independent Human Prostate Cancer Cells by 1,5-Bis(2-hydroxyphenyl)-1,4-pentadiene-3-one” (Molecules, 2015).

Tests used:
PC-3 cells [1] = assay: BrdU cell proliferation assay, PC-3; format: cell-based, human; details: PC-3, BrdU
Method: (§1) The anti-proliferative effects of compound on treated cells, was measured using the BrdU cell proliferation assay kit (Roche Applied Science Diagnostics, Indianapolis, IN, USA) according to the manufacturer’s protocol. The assay was based on incorporation of BrdU during DNA synthesis in proliferating cells. Cells were plated at a concentration of 10^4 cells/mL in a 96-well microtiter plate and incubated overnight. The cells were treated with compounds and curcumin (concentrations ranging from 1.56 µM–100 µM) as positive control for 24, 48 and 72 h respectively. Then, BrdU labeling solution (5 µL, diluted by 1/100 in culture media) was added to each well and incubated for 2 h at 37 °C. The media was replaced with fix/denaturing solution (100 µL) and incubated for 30 min at room temperature. Then, the fix/denaturing solution was removed by tapping off and followed by addition of 50 µL anti-BrdU antibody (50 µL, diluted by 1/100 in dilution buffer) to each well and further incubated for another 90 min at room temperature. Next, the cells were washed 3 times with wash buffer and substrate solution (50 µL) was added to each well. The plate was left for 10 min at room temperature in the dark and the absorbance was measured at a wavelength of 370 nm with a reference wavelength of 492 nm using a micro-plate ELISA reader (Bio-Rad). The percentage of BrdU incorporation was determined based on the ratio of absorbance of sample treated-cells to absorbance of control (untreated cells/DMSO only) multiplied by 100.

PC-3 cells [2] = assay: MTT cytotoxicity (cell viability) assay, PC-3; format: cell-based, human; details: for EC50: Homo sapiens, PC-3, MTT, 72 h treatment, mean ± SD, three experiments, read-out: EC50 Values (µM) of Compounds on Cell Lines PC-3; for dose from which decrease in cell viability is significant: PC-3, MTT, vs untreated; for Selective index (SX) WI-38 vs PC-3: SX = EC50 (WI-38)/EC50 (PC-3) × 100; for Selective index (SX) WRL68 vs PC-3: SX = EC50 (WRL68)/EC50 (PC-3) × 100
Method: (§2) Cell viability was determined by the MTT [3-(4,5-dimethylthiazol-2-yl)-2,5-diphenyltetrazolium bromide] assay, as previously described by Mosmann with modifications. Briefly, cells were detached from the tissue culture flask and pelleted by centrifugation at 1000 rpm for 5 min. Then, the density of the viable cells was counted using a haemocytometer. Cells were then plated in a 96-well flat bottom micro-titer plate (Nunc) at a concentration of 10^4 cells/mL and incubated in a 5% CO2 incubator at 37 °C overnight to allow the cells to adhere to the bottom of the wells. After 24 h, the media was aspirated off and replaced with fresh media containing sample compounds (curcumin and curcumin analogues) of seven different concentrations ranging from 1.56 µM–100 µM and incubated at 37 °C, 5% CO2 for 72 h. Separately, the sample compounds were prepared in a stock solution of 50 mM in 100% dimethyl sulfoxide (DMSO, Molecular Biology Grade, Sigma-Aldrich, St. Louis, MO, USA) and diluted in the culture media to a working concentration of 200 µM. Curcumin, the parent compound which was used as the positive control was also prepared in the similar manner. A two-fold serial dilution was done for each sample in triplicates down the columns of the plate, yielding a final volume and concentration of 100 µL in 0.2% DMSO in each wells. Following treatment, 50 µL MTT solutions (0.5 mg/mL in PBS) was added to each well and incubated for another 4 h at 37 °C in a humidified 5% CO2 incubator. The supernatant was replaced with 100 µL of DMSO and the optical density (OD) was measured at 570/650 nm using a micro-plate ELISA reader (Bio-Rad Laboratories, Hercules, CA, USA). The percentage of viable cells was calculated based on the ratio of the corrected absorbance of sample-treated cells to the corrected absorbance of the control (0.2% DMSO-treated cells) multiplied by 100. The percentage of cell viability was determined as follows: % Cell viability= OD of treated cells /OD of control ×100
(§3) For each compound tested, the EC50 value was generated from the log dose-response curves for each cell line using the Graphpad Prism version 5.04 for Windows (Graphpad Software, La Jolla, CA, USA). […] Cytotoxicity of each tested compound is expressed as the EC50 value. Based on the EC50 values, selectivity index (SX) value was also determined. Selectivity index is a special parameter applied as a selectivity indicator of tested compounds towards cancer cells. The SX represents the ratio of EC50 value obtained in toxicity testing using the normal cell lines to the EC50 values of the toxicity testing of the cancer cells, and then multiplied by 100. All the compounds were assessed for their potential toxicity against normal, non-cancerous cells. […] The SX values were calculated using the following equation: SX = EC50 (normal cells)/EC50 (cancer cells) × 100

DU 145 cells [3] = assay: BrdU cell proliferation assay, DU 145; format: cell-based, human; details: DU 145, BrdU
Method: as §1

[4] = tested on: WI-38 (human lung fibroblast cells); assay: MTT cytotoxicity assay, normal WI-38; format: cell-based; details: normal cell line, 72 h treatment, mean ± SD, read-out: EC50 Values (µM) of Compounds on Cell Lines WI-38
Method: as §2, §3

[5] = tested on: WRL 68 (human epithelial hepatocytes); assay: MTT cytotoxicity assay, normal WRL 68; format: cell-based; details: WRL68, normal cell line, 72 h treatment, mean ± SD, read-out: EC50 Values (µM) of Compounds on Cell Lines WRL-68
Method: as §2, §3

DU 145 cells [6] = assay: MTT cytotoxicity (cell viability) assay, DU 145; format: cell-based, human; details: for dose from which decrease in cell viability is significant: DU 145, MTT, vs untreated; for EC50: Homo sapiens, DU-145, MTT, 72 h treatment, mean ± SD, three experiments, read-out: EC50 Values (µM) of Compounds on Cell Lines DU 145; for Selective index (SX) WI-38 vs DU 145: SX = EC50 (WI-38)/EC50 (DU 145) × 100; for Selective index (SX) WRL68 vs DU 145: SX = EC50 (WRL68)/EC50 (DU 145) × 100
Method: as §2, §3

[7] = tested on: caspase-3 activity in DU 145 cells; assay: Caspase-3 colorimetric activity assay, DU 145; format: cell-based, human; details: DU 145, all time points, inhibitor control
Method: (§4) Caspase-3 activity was determined using the caspase-3 colorimetric assay kit (Sigma-Aldrich) according to manufacturer’s protocol. The assay is based on spectrophotometric detection of p-nitroanilide (pNA) a colored molecule, after its cleavage from the labeled substrate DEVD-pNA by the activity of caspase-3 enzyme. PC-3 and DU 145 cells were treated with MS17 at different concentrations (EC50, 2 × EC50, 3 × EC50) at various time points, 6, 12, 24, 48 and 72 h as appropriate. Following treatment, cells were washed with PBS and suspended with lysis buffer (50 mM HEPES, pH 7.4, 5 mM CHAPS, 5 mM DTT) for 30 min on ice at the concentration of 10^7 cells per 100 µL buffer. Cells were then spun for 30 min at 16,000× g, 4 °C. Protein lysate concentrations were measured based on the Bradford assay method using the Cayman Chemical protein determination kit (Cayman Chemical Company, Ann Arbor, MI, USA) based on the manufacturer’s protocol. Assay was performed on a 96-well micro-titer plate by adding equal amount of protein lysate (~100 µg) into wells containing the assay buffer (20 mM HEPES pH 7.4, 0.1% CHAPS, 5 mM DTT, 2 mM EDTA). Reaction was started by the addition of 10 µL of substrate Ac-DEVD-pNA (2 mM). The effect of Ac-DEVD-CHO, a caspase-3 inhibitor was also studied simultaneously on caspase-3 activity. Ten microliter of the inhibitor (200 µM) was added into the wells containing the protein lysate, assay buffer and the substrate. Caspase-3 activity was measured upon the release of pNA molecule, a pale yellow colored product using the micro-plate ELISA reader (Bio-Rad) at the wavelength of 405 nm. Relative caspase-3 activity was expressed as absorbance of enzyme activity compared with the control (untreated cells/DMSO only) based on the equation below: Relative caspase 3 activity= Absorbance of treated cells /Absorbance of control

[8] = tested on: caspase-3 activity in PC-3 cells; assay: Caspase-3 colorimetric activity assay, PC-3; format: cell-based, human; details: PC-3, all time points, inhibitor control
Method: as §4

Compound	concentration from which anti-proliferative activity is significant (PC-3 cells [1]; 24 h) [µM]	concentration from which anti-proliferative activity is significant (PC-3 cells [1]; 48 h) [µM]	concentration from which anti-proliferative activity is significant (PC-3 cells [1]; 72 h) [µM]	EC50 (PC-3 cells [2]) [µM]	dose from which decrease in cell viability is significant (PC-3 cells [2]) [µM]	Selective index (SX) WI-38 vs PC-3 (PC-3 cells [2])	Selective index (SX) WRL68 vs PC-3 (PC-3 cells [2])	concentration from which anti-proliferative activity is significant (DU 145 cells [3]; 24 h) [µM]	concentration from which anti-proliferative activity is significant (DU 145 cells [3]; 48 h) [µM]	concentration from which anti-proliferative activity is significant (DU 145 cells [3]; 72 h) [µM]	EC50 [4] [µM]	EC50 [5] [µM]	dose from which decrease in cell viability is significant (DU 145 cells [6]) [µM]	EC50 (DU 145 cells [6]) [µM]	Selective index (SX) WI-38 vs DU 145 (DU 145 cells [6])	Selective index (SX) WRL68 vs DU 145 (DU 145 cells [6])	relative caspase-3 activity with caspase-3 inhibitor [7]	relative caspase-3 activity with caspase-3 inhibitor [8]
COc1cc(/C=C/C(=O)CC(=O)/C=C/c2ccc(O)c(OC)c2)ccc1O [Curcumin, diferuloylmethane, reference compound]	50	50	50	35.9 ± 2.9	50	77.5	79.8	50	50	50	27.9 ± 2.9	28.7 ± 3.2	50	32.5 ± 1.4	85.8	88.2	–	–
O=C(C=Cc1cccc(F)c1)C=Cc1cccc(F)c1 [MS40E, 1,5-bis(3-fluorophenyl)-1,4-pentadiene-3-one]	50	50	50	28 ± 7.8	50	101.4	108.3	50	50	50	28.4 ± 1.7	30.3 ± 2	50	30.3 ± 1.9	93.5	100.0	–	–
Ac-DEVD-CHO [reference compound]	–	–	–	–	–	–	–	–	–	–	–	–	–	–	–	–	relatively low expression levels	relatively low expression levels
O=C1C(=Cc2cccc(F)c2)CCCC1=Cc1cccc(F)c1 [MS49, 2,6-bis(3-fluorobenzylidene)cyclohexanone]	25	25	25	14.5 ± 1.2	12.5	134.3	90.4	25	25	50	19.4 ± 7	13.1 ± 0.4	25	12.3 ± 2.3	158.6	106.8	–	–
COc1cc(C=CC(=O)C=Cc2ccc(O)c(OC)c2)ccc1O [MS13, 1,5-bis(4-hydroxy-3-methoxyphenyl)-1,4-pentadiene-3-one]	12.5	12.5	12.5	7.5 ± 0.1	6.3	124.8	115.1	12.5	12.5	25	9.4 ± 2.3	8.7 ± 0.2	12.5	7.4 ± 2.6	127.2	117.3	–	–
